Non-standard residues stand in square brackets, D forms with d. Residues, ends and D or L forms follow the SMILES beside them. *: point of attachment. Sta = CC(C)C[C@H](N)[C@@H](O)CC(=O)O; Isovaleryl = CC(C)CC(=O)*
Columns and labels:
renin = settings: Umezawa et al, J. Antibiot. 1970; cited from earlier work
blood pressure = settings: after the injection of hog renin into nephrectomized rats; Gross et al, Science 1971; cited from earlier work
pepsin = settings: Umezawa et al, J. Antibiot. 1970; cited from earlier work
cathepsin D = settings: Umezawa et al, J. Antibiot. 1970; cited from earlier work
human renin = biological target: T1, human renin (Homo sapiens, UniProt P00797); assay: Human Renin Inhibition in vitro (angiotensin I by radioimmunoassay); format: biochemical; settings: pH 7.4, two hours at 37° C.
T1 construct: purchased National Institute for Biological Standards, London
T1 sequence (P00797 67-406): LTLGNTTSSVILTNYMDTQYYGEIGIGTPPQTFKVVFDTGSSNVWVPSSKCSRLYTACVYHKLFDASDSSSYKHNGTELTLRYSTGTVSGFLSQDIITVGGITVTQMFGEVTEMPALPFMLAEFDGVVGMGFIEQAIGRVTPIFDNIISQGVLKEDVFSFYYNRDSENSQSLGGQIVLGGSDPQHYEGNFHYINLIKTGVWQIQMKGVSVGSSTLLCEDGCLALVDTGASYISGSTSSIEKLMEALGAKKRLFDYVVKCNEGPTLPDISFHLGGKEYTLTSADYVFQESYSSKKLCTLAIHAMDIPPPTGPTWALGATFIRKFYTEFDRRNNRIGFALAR
Description: Compounds of Formula I were evaluated as inhibitors of human renin in an in vitro assay, as follows: This human renin inhibition test has been previously described in detail [Papaioannou et al., Clinical and Experimental Hypertension, A7(9), 1243-1257 (1985)]. Human renin was obtained from the National Institute for Biological Standards, London. An incubation mixture was prepared containing the following components: in a total volume of 0.25 mL: 100 mM Tris-acetate buffer at pH 7.4, 25×10-6 Goldblatt units of renin, 0.05 mL of plasma from human volunteers taking oral contraceptives, 6.0 mM Na-EDTA, 2.4 mM phenylmethyl sulfonyl fluoride, 1.5 mM 8-hydroxyquinoline, 0.4 mg/mL bovine serum albumin (BSA), and 0.024 mg/mL neomycin sulfate. This mixture was incubated for two hours at 37° C. in the presence or absence of renin inhibitors. The produced angiotensin I was determined by radioimmunoassay (New England Nuclear kit). Test compounds to be assayed were dissolved in DMSO and diluted with 100 mM Tris-acetate buffer at pH 7.4 containing 0.5% BSA to the appropriate concentration. The final concentration of organic solvent in the reaction mixture was less than 1%. Control incubations at 37° C. were used to correct for effects of organic solvent on renin activity.

IC50 (human renin)	Structure (SMILES)	inhibitor of aspartyl proteases: renin (renin)	reduce blood pressure in vivo (blood pressure)	inhibitor of aspartyl proteases: pepsin (pepsin)	inhibitor of aspartyl proteases: cathepsin D (cathepsin D)
	CC(C)CC(=O)N[C@H](C(=O)N[C@H](C(=O)N[C@@H](CC(C)C)[C@@H](O)CC(=O)N[C@@H](C)C(=O)N[C@@H](CC(C)C)[C@@H](O)CC(=O)O)C(C)C)C(C)C [pepstatin] (Isovaleryl-VV[Sta]A[Sta]-OH)	inhibitor of aspartyl proteases such as pepsin, cathepsin D and renin	found to reduce blood pressure in vivo	inhibitor of aspartyl proteases such as pepsin	inhibitor of aspartyl proteases such as pepsin, cathepsin D
0.028 µM	C#CC[C@H](O)[C@H](O)[C@H](CC1CCCCC1)NC(=O)[C@H](Cc1cscn1)NC(=O)[C@@H](CC(=O)N(C)CCN(C)C)Cc1ccccc1 [Example 1, N^1-[2-[[1S,1R*-(cyclohexylmethyl-2S*,3R*-dihydroxy-5-hexynyl]amino]-2-oxo-1R*-(4-thiazolylmethyl)ethyl]-N^4-[2-(dimethylamino)ethyl]-N^4-methyl-2S*-(phenylmethyl)butanediamide]				
